Measured values as given in publication PMC3335078, “Length and Amino Acid Sequence of Peptides Substituted for the 5-HT3A Receptor M3M4 Loop May Affect Channel Expression and Desensitization” (PLoS ONE, 2012).

Tested on: 5-HT3A-QDA receptor
Assay: Outside-out patch clamp of transfected HEK293 cells, effect of ondansetron on 5-HT activated channels
Format: cell-based
Conditions: 1 µM ondansetron with 5-HT, -60 mV, data not shown
Experimental: HEK293 cells (CRL-1573, ATCC, Manassas, VA) seeded at low density on poly-lysine-coated, 12 mm, thin glass coverslips were transfected 24 h later using a modified calcium-phosphate precipitation technique with 500 ng DNA per well. After 12 h, cells were rinsed with fresh medium (DMEM supplemented with 10% FBS+100 Units ml^-1 penicillin+100 μg ml^-1 streptomycin+4 mM L-glutamine) and incubated at 28°C [34]. Recordings were performed 24-48 h later. For patch clamp experiments the coverslips were mounted on an inverted Zeiss IM microscope equipped with epifluorescent illumination. Cells expressing the GFP reporter were selected for patch clamp recording. Pipettes pulled from borosilicate glass capillaries ([…]-10, Harvard Apparatus Inc., Holliston, MA) with a tip resistance of 8-13 MΩ when filled with intracellular solution. The recordings were done using outside-out and cell-attached patch configurations. Data was acquired with an EPC9 amplifier using Pulse software, v8.65 (HEKA Instruments Inc., Bellmore, NY). Data were sampled at 20 kHz and filtered at 10 kHz. All point histograms and fits with a sum of two or three Gaussian functions were performed using the Levenberg-Marquardt algorithm implemented in Qub software. […] Effects of ondansetron were determined in the outside-out recording configuration at a holding potential of -60 mV.

`Cc1nccn1CC1CCc2c(c3ccccc3n2C)C1=O` (stereo not shown) [ondansetron, Ondansetron] was tested, and the “Block of 5-HT activated single channels” value was “no similar channels were observed”.
